One experiment deals with PKA (Homo sapiens, UniProt P17612). Nature of the experiment: Single dose inhibition assay of key AGC class kinases. Format: biochemical. The following applies: 10 μM API. How it is done: Molecular modeling and rational drug design were used to create and screen over 50 ROCK inhibitors. These ROCK inhibitors were screened for selectivity for ROCK2 and ability to promote neurite outgrowth. Several lead inhibitors came out of this screen and further screened for inhibition of key AGC class kinases by a single dose inhibition assay performed with 10 μM active pharmaceutical ingredient (API). The lead compound is chiral. […] They have different selectivity for ROCK2 (Table 2) and different off-target profiles (Table 1; FIG. 1).

Another experiment deals with ROCK2 (Homo sapiens, UniProt O75116). The experiment is described as follows: IC50 determined at 10 μM ATP. Format: biochemical. Set-up: purchased Eurofins Testing (Dundee, Scotland, UK). The source says:
The data in Table 2 were obtained at ATP concentration below those corresponding to Km.

One compound from patent publication US10537567B2, “Kinase inhibitors for treatment of disease” (BioAxone BioSciences, Inc., priority 2017, dated 2020) can be followed below.

Sequence of ROCK2 (O75116 whole entry): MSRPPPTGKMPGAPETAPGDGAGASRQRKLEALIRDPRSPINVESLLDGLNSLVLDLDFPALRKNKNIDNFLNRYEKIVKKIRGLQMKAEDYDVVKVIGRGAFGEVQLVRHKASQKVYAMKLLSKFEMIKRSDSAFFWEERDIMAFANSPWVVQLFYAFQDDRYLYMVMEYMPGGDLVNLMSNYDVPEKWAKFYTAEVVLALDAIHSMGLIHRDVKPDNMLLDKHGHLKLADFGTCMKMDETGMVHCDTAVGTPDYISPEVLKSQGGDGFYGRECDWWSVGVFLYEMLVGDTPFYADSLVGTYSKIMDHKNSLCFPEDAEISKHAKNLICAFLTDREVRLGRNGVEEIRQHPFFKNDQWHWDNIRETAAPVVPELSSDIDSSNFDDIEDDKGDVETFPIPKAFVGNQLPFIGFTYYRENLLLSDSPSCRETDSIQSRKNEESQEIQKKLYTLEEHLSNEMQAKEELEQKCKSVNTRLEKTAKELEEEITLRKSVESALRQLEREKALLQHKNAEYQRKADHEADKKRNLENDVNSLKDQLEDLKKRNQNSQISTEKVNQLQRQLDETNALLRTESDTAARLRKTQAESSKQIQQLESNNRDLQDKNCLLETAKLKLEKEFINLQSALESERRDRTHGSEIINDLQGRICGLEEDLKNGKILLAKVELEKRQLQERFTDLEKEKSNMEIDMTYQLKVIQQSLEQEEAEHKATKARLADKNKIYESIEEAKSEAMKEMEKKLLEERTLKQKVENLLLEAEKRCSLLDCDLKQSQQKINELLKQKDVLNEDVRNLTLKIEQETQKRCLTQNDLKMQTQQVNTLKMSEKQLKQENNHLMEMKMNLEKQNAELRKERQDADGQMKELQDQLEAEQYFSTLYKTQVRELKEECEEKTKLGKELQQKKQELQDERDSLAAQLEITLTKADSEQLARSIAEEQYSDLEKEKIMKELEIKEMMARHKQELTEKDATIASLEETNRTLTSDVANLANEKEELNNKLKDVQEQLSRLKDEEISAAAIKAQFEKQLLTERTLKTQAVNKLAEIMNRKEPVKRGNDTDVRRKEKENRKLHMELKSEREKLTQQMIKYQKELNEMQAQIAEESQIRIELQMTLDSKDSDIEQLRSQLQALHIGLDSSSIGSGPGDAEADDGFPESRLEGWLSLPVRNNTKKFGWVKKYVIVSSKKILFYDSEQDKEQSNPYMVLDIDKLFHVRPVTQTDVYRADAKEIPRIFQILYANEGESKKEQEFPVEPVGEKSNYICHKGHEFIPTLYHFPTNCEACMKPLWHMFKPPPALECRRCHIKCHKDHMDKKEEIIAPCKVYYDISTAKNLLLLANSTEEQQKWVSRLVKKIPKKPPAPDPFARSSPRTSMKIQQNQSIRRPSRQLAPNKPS

On to `C[C@H](N)C1CCN(S(=O)(=O)c2cccc3cnccc23)CC1` [BA-1076], for which the “Inhibition of PKA” value on PKA is listed as “Neither compound inhibited PKA”. For the same compound, the IC50 (as a rule, the midpoint of a concentration-inhibition curve) against ROCK2 (10 μM ATP (below Km), * = preliminary) was found to be 730 nM. At ROCK2 (ROCK1 vs ROCK2 IC50 at 10 μM ATP), this compound showed a Fold-difference of 14.
